Target: T1, Aspartate-semialdehyde dehydrogenase (Helicobacter pylori (strain ATCC 700392 / 26695) (Campylobacterpylori), UniProt O25801)
T1 sequence (O25801 whole entry): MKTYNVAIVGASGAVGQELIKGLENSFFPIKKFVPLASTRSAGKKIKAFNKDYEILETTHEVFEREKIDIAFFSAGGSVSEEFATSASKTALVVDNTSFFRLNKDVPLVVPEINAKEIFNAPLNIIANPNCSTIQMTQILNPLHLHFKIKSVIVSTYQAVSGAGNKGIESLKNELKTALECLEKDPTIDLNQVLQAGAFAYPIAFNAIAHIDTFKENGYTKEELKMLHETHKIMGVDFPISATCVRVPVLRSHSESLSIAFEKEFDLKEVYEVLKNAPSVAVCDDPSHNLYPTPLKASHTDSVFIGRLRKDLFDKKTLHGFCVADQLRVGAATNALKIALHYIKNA
Assay: Inhibition of Helicobacter pylori His-tagged ASD assessed as inhibition of phosphorylation of aspartate semialdehyde

IC50 [µM]	SMILES
306	C[n+]1ccc2c(c1)c(O)c1c3c(c4cc(Br)ccc4nc32)C(=O)C[N+]1(C)C [PETROSAMINE B]
0.18	N[C@@H](CSS(=O)(=O)O)C(=O)O

Source: ChEMBL document CHEMBL1158777, “Petrosamine B, an inhibitor of the Helicobacter pylori enzyme aspartyl semialdehyde dehydrogenase from the Australian sponge Oceanapia sp” (J Nat Prod, 2005)
